Source: publication PMC6424980, “Distinct G protein-coupled receptor phosphorylation motifs modulate arrestin affinity and activation and global conformation” (Nature Communications, 2019)

Experiments:
arrestin-2 = assay: Fluorescence anisotropy binding of fluorescein-labelled peptides to arrestin-2; parameters: species or system human
From the text: Synthesized cDNAs of bovine arrestin-1, human arrestin-2 and human arrestin-3 were ordered from Genewiz, amplified by PCR and cloned (Supplementary Information Table 5) into the pET-15b vector (Novagen), using the Gibson Assembly protocol. The constructs contained an N-terminal hexa histidine tag linked by a linker that contained a Tobacco Etch Virus cleavage site (TEV; […]). PCR was used to introduce the monomerizing arrestin-1 mutations (F85A, F197A)[58]. Note that this mutant was employed for fluorescence anisotropy, trypsin digestion, and NMR experiments. Wild-type arrestin-2 and -3 were used for fluorescence anisotropy and trypsin digestion experiments. […] The arrestin-1 in this construct had the wild-type sequence. Note that this construct differs slightly from that previously published[59],[60] and was optimized for purification. We verified the functionality of this fusion construct using the standard centrifugal pull-down assay using phosphorylated rhodopsin in native ROS membranes.
0.1–0.2 mg of lyophilized peptide was dissolved in 50 µl of 50 mM phosphate-buffered saline (PBS) buffer at pH 7.0, and then two molar equivalents of fluorescein-5-maleimide dye stock dissolved in dimethylsulfoxid was added. The reaction was carried out at RT in the dark. […] It was dissolved in 50 µl of 20 mM Bis-Tris propane pH 7.0 and 150 mM NaCl and its concentration was determined by absorbance. […]

arrestin-1 = assay: [15N,1H]TROSY NMR titration of arrestin-1 with peptide; assay type: binding, bovine; settings: peptide:arrestin-1 up to 10:1
Description: ^2H,^15N,^13C-labeled arrestin-1 aliquots were thawed quickly under running water, transferred to 30 kDa-cutoff Vivaspin (0.5 ml, Sartorius) centrifugal spin concentrators, and concentrated to approximately 600 μM. The concentrator was immediately transferred into a beaker filled with 400 ml of NMR buffer 1 or 2 (see below) carried by a floatation device. The dialysis was performed at 4 °C overnight. On the next day the concentration was determined by UV absorbance at 280 nm (molar extinction coefficient 26,360/mol/cm). […] The dialysis was performed at 4 °C overnight, and the peptide concentration was determined by its absorbance at 205 nm (molar extinction coefficient: 54,310/mol/cm). […]
NMR measurements were performed on Bruker Avance III-HD 600 or 900 MHz spectrometer using a CTCI cryo-cooled probehead. […] Pulse lengths were calibrated for ^1H manually and for ^13C/^15N using an in-house automated procedure. pH was monitored using the position of the phosphate signal in NMR buffer 2 as an internal reference and varied by no more than 0.03 pH units during peptide titration experiments. [^15N,^1H]TROSY experiments were recorded with internal ETH pulse sequences, whereas 3D triple resonance TROSY experiments were recorded using the manufacturer’s pulse sequences. […]

CDDEASTTVSKTETSQVAPA [5P, multiply phosphorylated rhodopsin C-terminus peptide lacking key site pS343]
binding to arrestin-2 (in words) (arrestin-2): bound well
NMR chemical shift / peak changes in arrestin-1 (in words) (arrestin-1): minimal chemical shift changes
